The target in the test is T1, human cathepsin S (CatS) (Homo sapiens, UniProt P25774).
T1 construct: made in house; host or cells: baculovirus system (insect cells)
The test can be described thus: Recombinant human cathepsin S (CatS) fluorogenic substrate inhibition assay. The class given is biochemical. The procedure: Recombinant human cathepsin S (CatS) was expressed in the baculovirus system and purified in one step with a thiopropyl-sepharose column. […] The assay is run in 150 mM sodium acetate pH 5.0 containing 1.5 mM DTT and 150 mM NaCl. […] Measurements are taken every min for 20 min. The rate is calculated from the slope of the increase in fluorescence and the percent inhibition is calculated from this.

Setting [1] is: recombinant human CatS, 10 μM Z-Valine-Valine-Arginine-AMC, pH 5.0, average of results obtained, read-out: CatS IC50.

Where two headings read alike, the source gives them in different places.

T1 sequence (P25774 115-331): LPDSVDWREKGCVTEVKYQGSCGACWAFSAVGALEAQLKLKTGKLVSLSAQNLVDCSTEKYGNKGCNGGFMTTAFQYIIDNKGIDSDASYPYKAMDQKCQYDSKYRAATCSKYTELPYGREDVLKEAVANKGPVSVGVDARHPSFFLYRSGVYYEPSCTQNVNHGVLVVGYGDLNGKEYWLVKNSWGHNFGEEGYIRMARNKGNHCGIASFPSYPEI

Turning to `CC(C)=CC(=O)NCc1cc(-c2nn(CC(O)CN3CCC(n4cn[nH]c4=O)CC3)c3c2CN(S(C)(=O)=O)CC3)ccc1C(F)(F)F` (centres unmarked) [Example 268, 3-Methyl-but-2-enoic acid 5-(1-{2-hydroxy-3-[4-(5-oxo-1,5-dihydro-[1,2,4]triazol-4-yl)-piperidin-1-yl]-propyl}-5-methanesulfonyl-4,5,6,7-tetrahydro-1H-pyrazolo[4,3-c]pyridin-3-yl)-2-trifluoromethyl-benzylamide], the half-maximal inhibitory concentration (IC50) under setting [1] was determined as 10 nM. Same read-out and setting: the figure for `CC(C)=CC(=O)NCc1cc(-c2nn(CC(O)CN3CCC(c4nc(=O)[nH][nH]4)CC3)c3c2CN(S(C)(=O)=O)CC3)ccc1C(F)(F)F` (centres unmarked) [Example 270, 3-Methyl-but-2-enoic acid 5-(1-{2-hydroxy-3-[4-(5-oxo-2,5-dihydro-1H-[1,2,4]triazol-3-yl)-piperidin-1-yl]-propyl}-5-methanesulfonyl-4,5,6,7-tetrahydro-1H-pyrazolo[4,3-c]pyridin-3-yl)-2-trifluoromethyl-benzylamide] is 10 nM.

In the case of `CC(C)=CC(=O)NCc1cc(-c2nn(CC(O)CN3CCC(c4c[nH]c5ncccc45)CC3)c3c2CN(S(C)(=O)=O)CC3)ccc1C(F)(F)F` (centres unmarked) [Example 272, 3-Methyl-but-2-enoic acid 5-(1-{2-hydroxy-3-[4-(1H-pyrrolo[2,3-b]pyridin-3-yl)-piperidin-1-yl]-propyl}-5-methanesulfonyl-4,5,6,7-tetrahydro-1H-pyrazolo[4,3-c]pyridin-3-yl)-2-trifluoromethyl-benzylamide], the 50% inhibitory concentration (IC50) under setting [1] was 20 nM.

As to `CC(C)=CC(=O)NCc1cc(-c2nn(CC(O)CN3CCC(c4ccccc4)CC3)c3c2CN(S(C)(=O)=O)CC3)ccc1C(F)(F)F` (centres unmarked) [Example 274, 3-Methyl-but-2-enoic acid 5-{1-[2-hydroxy-3-(4-phenyl-piperidin-1-yl)-propyl]-5-methanesulfonyl-4,5,6,7-tetrahydro-1H-pyrazolo[4,3-c]pyridin-3-yl}-2-trifluoromethyl-benzylamide], the IC50 under setting [1] worked out at 10 nM. The same measure, in the same setting: the figure for `CC(C)=CC(=O)NCc1cc(-c2nn(CC(O)CN3CCC(c4cccc(O)c4)CC3)c3c2CN(S(C)(=O)=O)CC3)ccc1C(F)(F)F` (centres unmarked) [Example 275, 3-Methyl-but-2-enoic acid 5-(1-{2-hydroxy-3-[4-(3-hydroxy-phenyl)-piperidin-1-yl]-propyl}-5-methanesulfonyl-4,5,6,7-tetrahydro-1H-pyrazolo[4,3-c]pyridin-3-yl)-2-trifluoromethyl-benzylamide] is 10 nM.

Take `CS(=O)(=O)N1CCc2c(c(-c3ccc(C(F)(F)F)c(CNC(=O)C4CC4)c3)nn2CC(O)CN2CCC(N3CCCC3=O)CC2)C1` (centres unmarked) [Example 276, Cyclopropanecarboxylic acid 5-(1-{2-hydroxy-3-[4-(2-oxo-pyrrolidin-1-yl)-piperidin-1-yl]-propyl}-5-methanesulfonyl-4,5,6,7-tetrahydro-1H-pyrazolo[4,3-c]pyridin-3-yl)-2-trifluoromethyl-benzylamide]: the concentration for half-maximal inhibition (IC50) under setting [1] is 90 nM. Still for that read-out and setting: the figure for `CC(C)CC(=O)NCc1cc(-c2nn(CC(O)CN3CCC(c4nnn[nH]4)CC3)c3c2CN(S(C)(=O)=O)CC3)ccc1C(F)(F)F` (centres unmarked) [Example 277, N-[5-(1-{2-Hydroxy-3-[4-(1H-tetrazol-5-yl)-piperidin-1-yl]-propyl}-5-methanesulfonyl-4,5,6,7-tetrahydro-1H-pyrazolo[4,3-c]pyridin-3-yl)-2-trifluoromethyl-benzyl]-3-methyl-butyramide] is 140 nM; for `CC(C)CCNCc1cc(-c2nn(CC(O)CN3CCC(N4CCOCC4)CC3)c3c2CN(S(C)(=O)=O)CC3)ccc1C(F)(F)F` (centres unmarked) [Example 282, 1-(5-Methanesulfonyl-3-{3-[(3-methyl-butylamino)-methyl]-4-trifluoromethyl-phenyl}-4,5,6,7-tetrahydro-pyrazolo[4,3-c]pyridin-1-yl)-3-(4-morpholin-4-yl-piperidin-1-yl)-propan-2-ol] it is 860 nM; for `CC(C)CC(=O)NCc1cc(-c2nn(CC(O)CN3CCC(C(=O)N4CCCC4)CC3)c3c2CN(S(C)(=O)=O)CC3)ccc1C(F)(F)F` (centres unmarked) [Example 284, N-[5-(1-{2-Hydroxy-3-[4-(pyrrolidine-1-carbonyl)-piperidin-1-yl]-propyl}-5-methanesulfonyl-4,5,6,7-tetrahydro-1H-pyrazolo[4,3-c]pyridin-3-yl)-2-trifluoromethyl-benzyl]-3-methyl-butyramide] it is 60 nM.

Take `Cc1noc(C2CCCN(CC(O)Cn3nc(-c4ccc(C(F)(F)F)c(CNC(=O)CC(C)C)c4)c4c3CCN(S(C)(=O)=O)C4)C2)n1` (centres unmarked) [Example 285, N-[5-(1-{2-Hydroxy-3-[3-(3-methyl-[1,2,4]oxadiazol-5-yl)-piperidin-1-yl]-propyl}-5-methanesulfonyl-4,5,6,7-tetrahydro-1H-pyrazolo[4,3-c]pyridin-3-yl)-2-trifluoromethyl-benzyl]-3-methyl-butyramide]: the IC50 under setting [1] was determined as 390 nM.

As to `Cc1noc(C2CCN(CC(O)Cn3nc(-c4ccc(C(F)(F)F)c(CNC(=O)CC(C)C)c4)c4c3CCN(S(C)(=O)=O)C4)CC2)n1` (centres unmarked) [Example 286, N-[5-(1-{2-Hydroxy-3-[4-(3-methyl-[1,2,4]oxadiazol-5-yl)-piperidin-1-yl]-propyl}-5-methanesulfonyl-4,5,6,7-tetrahydro-1H-pyrazolo[4,3-c]pyridin-3-yl)-2-trifluoromethyl-benzyl]-3-methyl-butyramide], the 50% inhibitory concentration (IC50) under setting [1] was found to be 30 nM.

As for `CC(C)CC(=O)NCc1cc(-c2nn(CC(O)CN3CCC(O)(c4ccc(Br)cc4)CC3)c3c2CN(S(C)(=O)=O)CC3)ccc1C(F)(F)F` (centres unmarked) [Example 287, N-[5-(1-{3-[4-(4-Bromo-phenyl)-4-hydroxy-piperidin-1-yl]-2-hydroxy-propyl}-5-methanesulfonyl-4,5,6,7-tetrahydro-1H-pyrazolo[4,3-c]pyridin-3-yl)-2-trifluoromethyl-benzyl]-3-methyl-butyramide], the half-maximal inhibitory concentration (IC50) under setting [1] worked out at 60 nM. On to `CC(C)CC(=O)NCc1cc(-c2nn(CC(O)CN3CCC(c4ccccc4)CC3)c3c2CN(S(C)(=O)=O)CC3)ccc1C(F)(F)F` (centres unmarked) [Example 288, N-(5-{1-[2-Hydroxy-3-(4-phenyl-piperidin-1-yl)-propyl]-5-methanesulfonyl-4,5,6,7-tetrahydro-1H-pyrazolo[4,3-c]pyridin-3-yl}-2-trifluoromethyl-benzyl)-3-methyl-butyramide], for which the IC50 was 10 nM. Take `CS(=O)(=O)N1CCc2c(c(-c3ccc(C(F)(F)F)c(CNCc4ccc(F)cc4)c3)nn2CCCN2CCC(C3CCCCC3)CC2)C1` [Example 296, (5-{1-[3-(4-Cyclohexyl-piperidin-1-yl)-propyl]-5-methanesulfonyl-4,5,6,7-tetrahydro-1H-pyrazolo[4,3-c]pyridin-3-yl}-2-trifluoromethyl-benzyl)-(4-fluoro-benzyl)-amine]: the 50% inhibitory concentration (IC50) under setting [1] is 20 nM.

The record behind these values is patent US20080269241A1, “BICYCLIC AMINOPROPYL TETRAHYDRO-PYRAZOLO-PYRIDINE MODULATORS OF CATHEPSIN S” (priority 2007, published 2008).
